These results are taken from PubChem BioAssay (NCI).

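A five-concentration, 48-hour dose response in 96-well plates underlies each endpoint, interpolated linearly between surrounding concentrations. TGI: concentration producing complete growth inhibition.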

Some test systems named below: 786-0 renal; A498 renal; ACHN renal; HCC-2998 colon; HCT-15 colon; HS 578T breast; IGROV1 ovarian; K-562 leukemia; LOX IMVI melanoma; MALME-3M melanoma; MOLT-4 leukemia; NCI-H226 lung; NCI-H23 lung; NCI/ADR-RES ovarian; OVCAR-5 ovarian; SK-MEL-5 melanoma; SR leukemia; T-47D breast; UACC-62 melanoma; UO-31 renal.
What all share (test): inhibition of tumour cell growth, NCI panel, 48 h

Take `NC(N)=N/N=C\c1c(-c2cccc([N+](=O)[O-])c2)nc2sc(Cl)cn12`: the TGI was over 100 µM with 786-0 renal; 62.7 µM in the experiment with A498 renal; over 100 µM in the experiment with ACHN renal; 4.92 µM in the experiment on HCC-2998 colon; over 100 µM in the experiment on HCT-15 colon; over 100 µM in the experiment on HS 578T breast. The TGI with IGROV1 ovarian is 4.05 µM; in the experiment on K-562 leukemia it was over 100 µM; with LOX IMVI melanoma it was over 100 µM; in the experiment on MALME-3M melanoma, 5.04 µM; in the experiment on MOLT-4 leukemia, 4.53 µM; in the experiment with NCI-H226 lung it was over 100 µM. The TGI with NCI-H23 lung was 5.69 µM; with NCI/ADR-RES ovarian it was over 100 µM; in the experiment on OVCAR-5 ovarian, over 100 µM; in the experiment with SK-MEL-5 melanoma it was 78.2 µM; in the experiment with SR leukemia it was 3.07 µM; in the experiment with T-47D breast, 4.4 µM. Also, the results for the TGI in the experiment on UACC-62 melanoma and in the experiment with UO-31 renal were over 100 µM and 3.32 µM, respectively.
